The results in this text go back to US7008949B2, “Heterocyclic compounds which inhibit leukocyte adhesion mediated by α4 integrins” (Elan Pharmaceuticals, Inc., priority 2003, dated 2006).

Values after ≈ are worked out from the molar mass of the structure shown.

The target of data set [1] is T1, α4β1 Integrin (Homo sapiens, UniProt P05556+P13612).
T1 construct: endogenous in cells; host or cells: Jurkat cells
Nature of the data set: α4β1 Integrin Adhesion Assay: Jurkat cell adhesion to human plasma fibronectin. It counts as cell-based. Conditions: Jurkat cells. As to the method:
96 well plates (Costar 3590 EIA plates) were coated with human fibronectin (Gibco/BRL, cat #33016-023) at a concentration of 10 μg/mL overnight at 4° C. The plates were then blocked with a solution of bovine serum albumin (BSA; 0.3%) in saline. Jurkat™ cells (maintained in log phase growth) were labeled with Calcein AM according to the manufacturer's instructions, and suspended at a concentration of 2×10^6 cells/mL in Hepes/Saline/BSA. The cells were then exposed to test and control compounds for 30 minutes at room temperature before transfer to individual wells of the fibronectin coated plate. Adhesion was allowed to occur for 35 minutes at 37° C. The wells were then washed by gentle aspiration and pipetting with fresh saline. Fluorescence associated with the remaining adherent cells was quantified using a fluorescence plate reader at EX 485/EM 530.
Cell cultures were prepared by first splitting the stationary phase Jurkat™ cells at 1:10 on day one, and 1:2 on day two to perform assay on day 3. The cells split 1:10 on day one were split 1:4 on day 3 for a day 4 assay.
The assay plates were prepared by first making a working solution of Gibco/BRL Human Fibronectin (cat # 33016-023) in PBS++, at 10 μg/mL.
A Costar 3590 EIA plate was then coated with 50 μL/well for 2 hours at room temperature (thought it can also be left overnight at 4° C.). Finally the plate was asperated and blocked with Hepes/Saline Buffer, 100 μL/well, for 1 hour at RT followed by washing three times with 150 μL of PBS++.
Compound dilutions were accomplished by preparing 1:3 serial dilutions of compounds as follows. For each plate (4 compounds/plate) 600 μL were added to 4 Bio-Rad Titertubes in a Titertube rack. Enough compound was added to each appropriate tube to give a 2× concentration using methods well known in the art. Using Falcon Flexiplates, 100 μL of Hepes/Saline buffer or human serum were added to rows B through G. A multi-channel pipetter set to 180 μL was used to with four tips spaced evenly the pipetter. Each set of four tubes was mixed 5 times and 180 μL of 2× compound was transferred to the first column of each compound dilution in Row B, leaving Row A empty. 180 μL were added to the other wells in Row A. Serial dilutions were performed down the plate by transferring 50 μL to the next dilution and mixing 5 times, changing tips each time after mixing. Dilutions were stopped at Row F. Row G had no compound present.
A 20 μg/mL solution in Hepes/Saline buffer or human serum, of 21/6 antibody was the positive control and was set aside in a reagent trough to add to cell suspension plate.
The cell staining was accomplished by first harvesting the log-phase Jurkat™ cells by centrifugation in 50 mL tubes (1100 rpm for 5 minutes). The cells were resuspended in 50 mL PBS++, spun, and resuspend in 20 mL PBS++. The cells were stained by adding 20 μL of Calcein AM for 30 minutes R.T. The volume was brought to 50 mL with Hepes/Saline buffer and the cells were counted, spun, and resuspend to 2×10^6 cells/mL in Hepes/Saline buffer or human serum.
The compounds were incubated using the following procedure. In a new flexiplate, 65 μL of stained cells were added to Rows B through H. Then 65 μL of 2× compounds were added to the appropriate rows following the plate setup and mixed 3×. 65 μL of 2×-21/6 antibody were added to Row H and mixed 3×. Finally the plate was incubated at room temperature for 30 minutes.
Fibronectin adhesion was measured using a fluorescent plate reader at EX 485/EM 530 after the following work up procedure. After incubation, the cells were mixed 3× and 100 μL were transferred to the Fibronectin coated plates and incubated at 37° C. for about 35 minutes. Each plate was washed, row by row, by gently pipetting 100 μL of R.T. PBS++ down the sides of the wells and turning the plate 90 degrees to aspirate. This procedure was repeated for a total of 3 washes. Each well was filled with 100 μL after washing by pipetting down the side of the well. […]

A short description of data set [2]: Cassette dosing and serum analysis for determination of oral bioavailability. It counts as in vivo, rat. As to conditions: male SD rats, oral cassette of 6 compounds, total dose 10 mg/kg, plasma at 4, 8, 12 h. As to the method: The oral bioavailability was screened by dosing rats with a cassette, i.e. mixture of 6 compounds per dosing solution. The cassette included 5 test articles and a standard compound, for a total dose of 10 mg/kg. Each compound/test article was converted to the sodium salt with equimolar 1 N NaOH and dissolved in water at 2 mg/mL. The cassette was prepared by mixing equal volumes of each of the six solutions. The cassette dosing solution was mixed well and then the pH was adjusted to 7.5–9. The dosing solution was prepared the day before the study and stirred overnight at room temperature.
Male Sprague Dawley (SD) rats from Charles River Laboratories, 6–8 weeks old were used in this screen. Rats were quarantined for at least one day and had continuous access to food and water. On the night before the administration of the cassette, the rats were fasted for approximately 16 h.
Four SD rats were assigned in each cassette. A single dose of the dosing solution was administered orally to each rat. The dosing volume (5 mL/kg) and time were recorded and rats were fed 2 h after dosing.
Blood samples were collected via cardiac puncture at the following time points: 4 h, 8 h and 12 h. Immediately prior to blood collection, rats were anesthetized with CO2 gas within 10–20 seconds. After the 12-hour samples were collected, the rats were euthanized via CO2 asphyxiation followed by cervical dislocation.
Blood samples were kept in heparinized microtainer tubes under sub-ambient temperature (4° C.) before they were processed. Blood samples were centrifuged (10000 rpm for 5 minutes) and plasma samples were removed and stored in a −20° C. freezer until analyzed for drug levels. Drug levels in the plasma were analyzed using the following protocol for direct plasma precipitation.
The in vivo plasma samples were prepared in a 1.5 mL 96-well plate, by adding, in order, 100 μL of the test plasma, 150 μL of methanol, followed by vortexing for 10–20 seconds. 150 μL of 0.05 ng/μL of an Internal Standard in acetonitrile were added and vortexed for 30 seconds.
The standard curve samples were prepared in a 1.5 mL 96-well plate, by adding, in order, 100 μL of control mouse plasma, followed by 150 μL of methanol and vortexing for 10–20 seconds. 150 μL of 0.05 ng/μL of an Internal Standard in acetonitrile were added and vortexed for 30 seconds. The samples were spiked with 0–200 ng (10 concentrations) of the compound of interest in 50% methanol to obtain a standard curve range of 0.5 ng/mL–2,000 ng/mL. Again, the sample was vortexed for 30 seconds.
The samples were then spun for 20–30 minutes at 3000 rpm in an Eppendorf microfuge before 80–90% of supernatant was transferred into a clean 96-well plate. The organic solvent was then evaporated until the samples were dry (under N2 at 40° C./30–60 min (ZymarkTurbovap)).
The residue was then dissolved in […] mobile phase (50% CH3OH/0.1% TFA). LC/MS/MS was then run using a PE-Sciex API-3000 triple quadurpole mass spectrometer (SN0749707), Perkin-Elmer, Series200auto-sampler, and shimadzu 10A pump. Acquisition was done with PE-Sciex Analyst (v1.1) and data analysis and quantification were accomplished using PE-Sciex Analyst (v1.1). A 5–50 μL sample volume was injected onto a reverse phase ThermoHypersil DASH-18 column (Keystone 2.0×20 mm, 5 μm, PN: 8823025-701) using a mobile phase of 25% CH3OH, 0.1% TFA-100% CH3OH, 0.1% TFA. The run time was about 8 minutes at a flow rate of about 300 μL/minutes.
The Area Under the Curve (AUC) was calculated using the linear trapezoidal rule from t=0 to the last sampling time tx (see Handbook of Basic Pharmacokinetics, Wolfgang A. Ritschel and Gregory L. Kearns, 5th ed, 1999). AUC^0→tx═S((Cn+Cn+1)/2))·(tn+1−tn)[(μg/mL)h]
In the case of the cassette dosing paradigm, samples at 4, 8 and 12 h post extravascular dosing, the AUC was calculated from t=0 to t=12 h.

Where [3] appears, read: IC50, Cell Adhesion to Human Plasma Fibronectin (With Human Serum), with human serum.
The mark [4] stands for this setting: IC50, Cell Adhesion to Human Plasma Fibronectin (Without the Human Serum), without human serum.

T1 sequence (P13612 34-1032): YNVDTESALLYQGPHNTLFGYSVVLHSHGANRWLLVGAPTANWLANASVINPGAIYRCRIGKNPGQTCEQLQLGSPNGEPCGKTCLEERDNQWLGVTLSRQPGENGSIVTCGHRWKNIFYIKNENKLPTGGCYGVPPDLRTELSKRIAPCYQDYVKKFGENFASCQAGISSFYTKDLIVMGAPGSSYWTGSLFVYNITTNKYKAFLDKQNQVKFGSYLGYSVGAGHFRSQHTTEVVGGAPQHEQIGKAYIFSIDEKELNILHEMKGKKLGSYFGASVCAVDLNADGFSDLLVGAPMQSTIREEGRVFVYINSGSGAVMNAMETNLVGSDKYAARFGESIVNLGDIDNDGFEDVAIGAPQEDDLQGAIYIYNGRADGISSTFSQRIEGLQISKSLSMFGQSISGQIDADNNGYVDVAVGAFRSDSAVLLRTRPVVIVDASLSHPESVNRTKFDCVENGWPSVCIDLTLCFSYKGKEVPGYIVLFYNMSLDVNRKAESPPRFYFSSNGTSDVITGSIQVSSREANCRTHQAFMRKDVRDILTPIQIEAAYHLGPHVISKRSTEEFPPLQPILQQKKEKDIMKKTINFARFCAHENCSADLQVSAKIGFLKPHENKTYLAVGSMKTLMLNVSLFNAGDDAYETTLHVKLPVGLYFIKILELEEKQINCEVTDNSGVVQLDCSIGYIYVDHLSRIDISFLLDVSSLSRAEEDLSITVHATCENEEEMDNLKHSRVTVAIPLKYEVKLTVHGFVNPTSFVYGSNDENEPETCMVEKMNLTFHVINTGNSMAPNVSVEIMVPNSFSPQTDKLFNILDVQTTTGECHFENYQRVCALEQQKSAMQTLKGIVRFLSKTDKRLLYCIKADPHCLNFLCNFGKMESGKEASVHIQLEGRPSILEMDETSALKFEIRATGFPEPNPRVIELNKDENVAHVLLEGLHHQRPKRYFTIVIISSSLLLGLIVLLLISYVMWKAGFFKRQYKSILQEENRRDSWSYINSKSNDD
T1 sequence (P05556 21-798): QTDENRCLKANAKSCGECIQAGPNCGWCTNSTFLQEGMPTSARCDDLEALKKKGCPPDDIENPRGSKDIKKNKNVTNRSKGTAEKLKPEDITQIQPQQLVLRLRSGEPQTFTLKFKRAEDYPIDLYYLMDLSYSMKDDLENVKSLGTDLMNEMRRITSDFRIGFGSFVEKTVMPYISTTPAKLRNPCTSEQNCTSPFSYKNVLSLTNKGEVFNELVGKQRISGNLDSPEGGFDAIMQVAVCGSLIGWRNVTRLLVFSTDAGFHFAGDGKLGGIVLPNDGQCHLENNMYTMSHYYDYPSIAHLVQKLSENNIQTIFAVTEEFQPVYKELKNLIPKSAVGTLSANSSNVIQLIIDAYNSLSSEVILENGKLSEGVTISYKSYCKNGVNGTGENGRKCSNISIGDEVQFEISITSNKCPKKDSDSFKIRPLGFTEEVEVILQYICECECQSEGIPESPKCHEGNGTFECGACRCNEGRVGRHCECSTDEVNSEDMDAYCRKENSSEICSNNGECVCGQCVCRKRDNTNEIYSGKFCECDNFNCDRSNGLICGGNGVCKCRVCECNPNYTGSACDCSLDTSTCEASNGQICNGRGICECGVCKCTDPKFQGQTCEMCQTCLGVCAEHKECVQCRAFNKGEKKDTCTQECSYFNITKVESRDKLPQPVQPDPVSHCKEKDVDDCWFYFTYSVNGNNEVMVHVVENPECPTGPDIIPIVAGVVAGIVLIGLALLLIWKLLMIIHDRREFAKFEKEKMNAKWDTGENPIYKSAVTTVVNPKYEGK

As for `CCCCN(c1cnc(N(CC)CC)nc1NC(Cc1ccc(OC(=O)N(C)C)cc1)C(=O)O)S(=O)(=O)c1ccc(F)cc1` (stereo not drawn) [Example 24, 2-{2-diethylamino-5-[(4-fluorobenzenesulfonyl)-n-butylamino]pyrimidin-4-ylamino}-3-(4-dimethylcarbamoyloxyphenyl)propionic acid], the concentration for half-maximal inhibition (IC50) (in general, the concentration at which inhibition is half-maximal) is 42.8 nM in data set [1] (setting [3]) and 4.76 nM in data set [1] (setting [4]). Moreover, the “AUC (average AUC 0→12 h)” value in data set [2] is 0.4983 (μg/mL)h.

Take `CCN(CC)c1ncc(N(C(C)C)S(=O)(=O)c2ccc(F)cc2)c(N[C@@H](Cc2ccc(OC(=O)N(C)C)cc2)C(=O)O)n1` [Example 8]: the figures for the IC50 in data set [1] (setting [3]) and in data set [1] (setting [4]) were 264 nM and 4.87 nM, respectively. The “AUC (average AUC 0→12 h)” value in data set [2] is 0.5088 (μg/mL)h.

`CCN(CC)c1ncc(N(C)S(=O)(=O)c2ccc(F)cc2F)c(N[C@@H](Cc2ccc(OC(=O)N(C)C)cc2)C(=O)O)n1` [Example 17]: the results for the half-inhibitory concentration (IC50) in data set [1] (setting [3]) and in data set [1] (setting [4]) were 39.6 nM and 1.65 nM, respectively. Further, the “AUC (average AUC 0→12 h)” value in data set [2] is listed as 1.0075 (μg/mL)h.

For the compound “2-{2-diethylamino-5-[(benzenesulfonyl)methylamino]pyrimidin-4-ylamino}-3-(4-dimethylcarbamoyloxyphenyl)propionic acid [Example 5]”, the “IC50, Cell Adhesion to Human Plasma Fibronectin (With Human Serum)” value (shortened to “IC50, Cell Adhesion … (With Human Serum)”) in data set [1] (with human serum) amounted to 1.851 µg/mL. For the same compound, the “IC50, Cell Adhesion to Human Plasma Fibronectin (Without the Human Serum)” value (from here on “IC50, Cell Adhesion … (Without the Human Serum)”) in data set [1] (without human serum) is 0.001414 µg/mL. The “AUC (average AUC 0→12 h)” value in data set [2] is recorded as 0.9577 (μg/mL)h.

Take `CCN(CC)c1ncc(N(C)S(=O)(=O)c2cccc(F)c2)c(N[C@@H](Cc2ccc(OC(=O)N(C)C)cc2)C(=O)O)n1` [Example 7, 2-{2-diethylamino-5-[(3-fluorobenzenesulfonyl)methylaminol]pyrimidin-4-ylamino}-3-(4-dimethylcarbamoyloxyphenyl) propionic acid]: the IC50 in data set [1] (setting [3]) is 997 nM; in data set [1] (setting [4]), 1.39 nM. The “AUC (average AUC 0→12 h)” value in data set [2] was 0.717 (μg/mL)h.

As to `C#CCN(c1cnc(N(CC)CC)nc1N[C@@H](Cc1ccc(OC(=O)N(C)C)cc1)C(=O)O)S(=O)(=O)c1ccc(F)cc1` [Example 27], the IC50 in data set [1] (setting [3]) is 106 nM; in data set [1] (setting [4]), 1.63 nM. Besides, in data set [2], the “AUC (average AUC 0→12 h)” value is listed as 1.6258 (μg/mL)h.

Take “2-{2-diethylamino-5-[(4-fluorobenzenesulfonyl)methylamino]pyrimidin-4-ylamino}-3-(4-dimethylcarbamoyloxyphenyl)propionic acid [Example 1]”: the “IC50, Cell Adhesion … (With Human Serum)” value in data set [1] (with human serum) is 0.318 µg/mL. The “IC50, Cell Adhesion … (Without the Human Serum)” value in data set [1] (without human serum) is 0.002 µg/mL. The “AUC (average AUC 0→12 h)” value in data set [2] is 2.3308 (μg/mL)h.

For `CCN(CC)c1ncc(N(CC(C)C)S(=O)(=O)c2ccc(F)cc2)c(N[C@@H](Cc2ccc(OC(=O)N(C)C)cc2)C(=O)O)n1` [Example 23, 2-{2-diethylamino-5-[(4-fluorobenzenesulfonyl)isobotylamino]pyrimidin-4-ylamino}-3-(4-dimethylcarbamoyloxyphenyl)propionic acid], the IC50 was 117 nM in data set [1] (setting [3]) and 6.34 nM in data set [1] (setting [4]). The “AUC (average AUC 0→12 h)” value in data set [2] is listed as 0.413 (μg/mL)h.

On to `CCN(CC)c1ncc(N(C)S(=O)(=O)c2ccc(F)c(F)c2)c(N[C@@H](Cc2ccc(OC(=O)N(C)C)cc2)C(=O)O)n1` [Example 3], for which the IC50 in data set [1] (setting [3]) is 251 nM; in data set [1] (setting [4]), 3.3 nM. Moreover, the “AUC (average AUC 0→12 h)” value in data set [2] is 1.5483 (μg/mL)h.

Take `CCN(CC)c1ncc(N(CC)S(=O)(=O)c2cc(F)cc(F)c2)c(N[C@@H](Cc2ccc(OC(=O)N(C)C)cc2)C(=O)O)n1` [Example 16, 2-{2-diethylamino-5-[(3.5-difluorobenzenesulfonyl)ethylamino]pyrimidin-4-ylamino}-3-(4-dimethylcarbamoyloxyphenyl) propionic acid]: the IC50 in data set [1] (setting [3]) is 108 nM; in data set [1] (setting [4]), 1.67 nM. For the same compound, the “AUC (average AUC 0→12 h)” value in data set [2] was 0.1721 (μg/mL)h.

`CCN(CC)c1ncc(N(CC)S(=O)(=O)c2cccc(F)c2F)c(NC(Cc2ccc(OC(=O)N(C)C)cc2)C(=O)O)n1` (stereo not drawn) [Example 26, 2-{2-diethylamino-5-[(2.3-difluorobenzenesulfonyl)ethylamino]pyrimidin-4-ylamino}-3-(4-dimethylcarbamoyloxyphenyl) propionic acid]: the “IC50, Cell Adhesion … (With Human Serum)” value in data set [1] (with human serum) was 0.01848 µg/mL (≈ 0.0298 µM). Besides, the “IC50, Cell Adhesion … (Without the Human Serum)” value in data set [1] (without human serum) is 0.001 µg/mL (≈ 0.00161 µM). Also, the “AUC (average AUC 0→12 h)” value in data set [2] is 0.3392 (μg/mL)h.
